In ChEMBL document CHEMBL1938364, “Discovery of orally active pyrazoloquinolines as potent PDE10 inhibitors for the management of schizophrenia” (Bioorg Med Chem Lett, 2012):
Blank lines part the entries; values can stand above or below the compound they belong to. Active and inactive are the calls of the source. The rule behind the calls is not given here.

What was measured:
[1] = biological target: cAMP and cAMP-inhibited cGMP 3',5'-cyclic phosphodiesterase 10A (Homo sapiens, UniProt Q9Y233); test: Displacement of [3H]cAMP from human recombinant PDE10A1 by competitive binding assay
Chain of cAMP and cAMP-inhibited cGMP 3',5'-cyclic phosphodiesterase 10A (Q9Y233 whole entry): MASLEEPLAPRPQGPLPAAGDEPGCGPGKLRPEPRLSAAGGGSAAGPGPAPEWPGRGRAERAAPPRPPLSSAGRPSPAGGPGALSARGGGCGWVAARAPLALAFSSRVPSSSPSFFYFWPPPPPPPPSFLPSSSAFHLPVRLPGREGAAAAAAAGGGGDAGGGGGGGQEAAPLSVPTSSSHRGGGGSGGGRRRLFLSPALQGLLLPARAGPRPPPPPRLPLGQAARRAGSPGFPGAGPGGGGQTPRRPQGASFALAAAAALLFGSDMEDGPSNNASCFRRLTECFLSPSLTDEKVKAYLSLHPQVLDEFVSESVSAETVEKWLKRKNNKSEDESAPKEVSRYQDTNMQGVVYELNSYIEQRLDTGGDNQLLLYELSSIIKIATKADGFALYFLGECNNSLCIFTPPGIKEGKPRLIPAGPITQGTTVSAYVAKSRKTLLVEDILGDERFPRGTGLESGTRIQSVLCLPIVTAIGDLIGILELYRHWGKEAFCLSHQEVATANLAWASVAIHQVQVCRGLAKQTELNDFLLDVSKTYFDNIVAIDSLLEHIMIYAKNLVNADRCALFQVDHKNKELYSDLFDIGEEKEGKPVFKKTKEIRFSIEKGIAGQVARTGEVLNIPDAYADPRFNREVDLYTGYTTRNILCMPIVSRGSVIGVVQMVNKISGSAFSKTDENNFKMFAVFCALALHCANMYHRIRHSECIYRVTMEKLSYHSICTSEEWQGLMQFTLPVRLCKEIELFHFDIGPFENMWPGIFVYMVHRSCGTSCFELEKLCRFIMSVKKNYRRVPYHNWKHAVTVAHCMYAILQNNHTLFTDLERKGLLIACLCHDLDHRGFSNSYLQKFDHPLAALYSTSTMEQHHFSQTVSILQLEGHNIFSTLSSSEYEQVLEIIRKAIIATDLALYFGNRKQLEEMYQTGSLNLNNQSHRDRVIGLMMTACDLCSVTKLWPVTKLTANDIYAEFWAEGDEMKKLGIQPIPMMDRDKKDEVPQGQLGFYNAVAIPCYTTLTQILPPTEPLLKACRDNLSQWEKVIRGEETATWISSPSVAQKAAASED

[2] = biological target: cGMP-specific 3',5'-cyclic phosphodiesterase (Homo sapiens, UniProt O76074); test: Displacement of [3H]cAMP from PDE5A1 by competitive binding assay
[3] = Displacement of [3H]cAMP from PDE6 by competitive binding assay
[4] = Clearance in monkey hepatocytes assessed per million cells; format: ADME, cell-based, Macaca mulatta, Hepatocyte; details: rhesus monkey, read-out: CLH
[5] = species: Rattus norvegicus; test: Ratio of drug level in brain to plasma in rat after 6 hrs; format: ADME, organism-based
[6] = tested on: Rattus norvegicus; test: Toxicity in orally dosed rat schizophrenia model assessed as induction of hypolocomotion; format: organism-based; details: in vivo, po
[7] = Protein binding in rat; format: ADME, organism-based; details: plasma, read-out: PB (converted)
[8] = Clearance in human hepatocytes assessed per million cells; format: ADME, cell-based, Hepatocyte; details: read-out: CLH
[9] = tested on: Rattus norvegicus; test: Antipsychotic activity in rat schizophrenia model assessed as inhibition of MK801-induced hyperactivity at 3 mg/kg, po; format: functional; parameters: scale not given: the % may be the effect or the level left
[10] = tested on: Rattus norvegicus; test: Antipsychotic activity in rat schizophrenia model assessed as inhibition of MK801-induced hyperactivity at 30 mg/kg, po; format: functional; parameters: scale not given: the % may be the effect or the level left
[11] = biological target: hERG (KCNH2) (Homo sapiens, UniProt Q12809); test: Inhibition of human ERG at 10 uM
[12] = biological target: Cytochrome P450 3A4 (Homo sapiens, UniProt P08684); test: Inhibition of CYP3A4 up to 20 uM; format: ADME
[13] = Drug level in rat brain after 6 hrs; format: ADME, organism-based; details: read-out: Ct
[14] = tested on: Rattus norvegicus; test: Antipsychotic activity in orally dosed rat schizophrenia model assessed as inhibition of MK801-induced hyperactivity; format: functional; details: po, read-out: MED
[15] = Clearance in rat hepatocytes assessed per million cells; format: ADME, cell-based, Hepatocyte; details: read-out: CLH
[16] = biological target: Cytochrome P450 2C9 (Homo sapiens, UniProt P11712); test: Inhibition of CYP2C9 up to 20 uM; format: ADME
Chain of Cytochrome P450 2C9 (P11712 whole entry): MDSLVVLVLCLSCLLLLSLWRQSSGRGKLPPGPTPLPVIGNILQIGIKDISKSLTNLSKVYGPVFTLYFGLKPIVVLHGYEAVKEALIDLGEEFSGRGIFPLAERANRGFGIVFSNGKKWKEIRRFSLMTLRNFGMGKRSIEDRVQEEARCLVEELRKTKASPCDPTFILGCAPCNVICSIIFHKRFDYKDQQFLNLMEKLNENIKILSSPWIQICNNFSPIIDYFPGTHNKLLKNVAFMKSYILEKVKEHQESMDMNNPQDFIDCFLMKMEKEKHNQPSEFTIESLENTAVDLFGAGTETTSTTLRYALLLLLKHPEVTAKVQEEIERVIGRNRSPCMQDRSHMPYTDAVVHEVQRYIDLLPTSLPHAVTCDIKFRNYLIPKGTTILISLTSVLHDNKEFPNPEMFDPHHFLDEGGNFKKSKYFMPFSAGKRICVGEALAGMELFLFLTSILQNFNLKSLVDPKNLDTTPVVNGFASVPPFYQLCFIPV

[17] = biological target: Cytochrome P450 2D6 (Homo sapiens, UniProt P10635); test: Inhibition of CYP2D6 up to 20 uM; format: ADME
Chain of Cytochrome P450 2D6 (P10635 whole entry): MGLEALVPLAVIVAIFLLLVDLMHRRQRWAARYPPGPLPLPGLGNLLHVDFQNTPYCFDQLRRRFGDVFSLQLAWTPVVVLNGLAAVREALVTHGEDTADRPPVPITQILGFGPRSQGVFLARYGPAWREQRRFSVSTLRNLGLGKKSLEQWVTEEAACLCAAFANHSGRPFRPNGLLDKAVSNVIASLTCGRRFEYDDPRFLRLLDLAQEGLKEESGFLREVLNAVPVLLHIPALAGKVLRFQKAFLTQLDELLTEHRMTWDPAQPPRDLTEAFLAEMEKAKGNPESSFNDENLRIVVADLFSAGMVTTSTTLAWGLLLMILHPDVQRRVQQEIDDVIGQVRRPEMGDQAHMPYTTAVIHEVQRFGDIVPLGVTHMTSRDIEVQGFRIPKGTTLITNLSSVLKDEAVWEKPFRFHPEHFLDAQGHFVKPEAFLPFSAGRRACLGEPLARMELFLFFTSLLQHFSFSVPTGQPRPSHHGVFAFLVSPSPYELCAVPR

[18] = tested on: Rattus norvegicus; test: Antipsychotic activity in rat schizophrenia model assessed as inhibition of MK801-induced hyperactivity at 10 mg/kg, po; format: functional; parameters: scale not given: the % may be the effect or the level left
[19] = biological target: High affinity cAMP-specific and IBMX-insensitive 3',5'-cyclic phosphodiesterase 8A (Homo sapiens, UniProt O60658); test: Displacement of [3H]cAMP from PDE8A1 by competitive binding assay
Chain of High affinity cAMP-specific and IBMX-insensitive 3',5'-cyclic phosphodiesterase 8A (O60658 whole entry): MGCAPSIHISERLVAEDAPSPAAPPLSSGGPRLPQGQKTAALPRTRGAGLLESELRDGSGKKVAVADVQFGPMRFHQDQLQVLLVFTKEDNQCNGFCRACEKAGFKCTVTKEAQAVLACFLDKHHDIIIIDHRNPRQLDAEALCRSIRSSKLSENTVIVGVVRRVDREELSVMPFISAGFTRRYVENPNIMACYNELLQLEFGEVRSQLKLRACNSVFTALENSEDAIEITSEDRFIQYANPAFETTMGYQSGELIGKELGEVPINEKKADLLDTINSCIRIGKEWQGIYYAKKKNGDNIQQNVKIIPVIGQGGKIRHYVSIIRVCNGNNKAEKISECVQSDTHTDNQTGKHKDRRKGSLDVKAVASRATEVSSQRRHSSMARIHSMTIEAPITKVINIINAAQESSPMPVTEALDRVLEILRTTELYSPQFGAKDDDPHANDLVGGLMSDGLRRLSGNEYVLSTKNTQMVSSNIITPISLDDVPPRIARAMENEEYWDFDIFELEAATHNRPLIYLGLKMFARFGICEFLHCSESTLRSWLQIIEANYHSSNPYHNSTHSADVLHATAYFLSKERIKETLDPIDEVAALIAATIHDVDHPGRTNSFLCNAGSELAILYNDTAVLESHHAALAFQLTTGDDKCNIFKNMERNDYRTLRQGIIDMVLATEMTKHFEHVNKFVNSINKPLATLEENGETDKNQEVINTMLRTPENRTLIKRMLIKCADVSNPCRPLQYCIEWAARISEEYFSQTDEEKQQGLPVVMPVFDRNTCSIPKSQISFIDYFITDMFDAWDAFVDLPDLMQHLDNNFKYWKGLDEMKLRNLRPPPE

[20] = biological target: Dual specificity calcium/calmodulin-dependent 3',5'-cyclic nucleotide phosphodiesterase 1A (Homo sapiens, UniProt P54750); test: Displacement of [3H]cAMP from PDE1A3 by competitive binding assay
[21] = biological target: 3',5'-cyclic-AMP phosphodiesterase 4B (Homo sapiens, UniProt Q07343); test: Displacement of [3H]cAMP from PDE4B2 by competitive binding assay
Chain of 3',5'-cyclic-AMP phosphodiesterase 4B (Q07343 whole entry): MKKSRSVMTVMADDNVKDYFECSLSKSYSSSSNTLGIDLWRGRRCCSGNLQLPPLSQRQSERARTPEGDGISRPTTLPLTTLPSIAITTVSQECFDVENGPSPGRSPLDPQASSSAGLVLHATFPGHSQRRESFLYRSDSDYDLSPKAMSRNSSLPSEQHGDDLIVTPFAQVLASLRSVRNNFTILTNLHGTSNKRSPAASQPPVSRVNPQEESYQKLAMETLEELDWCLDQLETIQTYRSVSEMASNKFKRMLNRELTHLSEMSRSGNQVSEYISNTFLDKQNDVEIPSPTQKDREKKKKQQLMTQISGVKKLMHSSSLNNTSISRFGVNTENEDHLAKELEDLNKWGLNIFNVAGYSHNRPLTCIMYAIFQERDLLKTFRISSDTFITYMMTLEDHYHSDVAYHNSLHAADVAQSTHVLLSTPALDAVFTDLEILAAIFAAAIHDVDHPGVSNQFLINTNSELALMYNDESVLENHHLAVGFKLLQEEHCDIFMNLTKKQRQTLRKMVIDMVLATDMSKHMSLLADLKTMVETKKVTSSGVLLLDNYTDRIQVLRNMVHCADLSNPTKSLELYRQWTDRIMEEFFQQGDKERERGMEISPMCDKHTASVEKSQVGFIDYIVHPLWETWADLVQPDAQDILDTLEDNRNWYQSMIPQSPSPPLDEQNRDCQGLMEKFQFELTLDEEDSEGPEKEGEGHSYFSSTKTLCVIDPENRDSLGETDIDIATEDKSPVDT

[22] = biological target: cGMP-inhibited 3',5'-cyclic phosphodiesterase 3A (Homo sapiens, UniProt Q14432); test: Displacement of [3H]cAMP from PDE3A by competitive binding assay
[23] = biological target: High affinity 3',5'-cyclic-AMP phosphodiesterase 7A (Homo sapiens, UniProt Q13946); test: Displacement of [3H]cAMP from PDE7A1 by competitive binding assay
Chain of High affinity 3',5'-cyclic-AMP phosphodiesterase 7A (Q13946 whole entry): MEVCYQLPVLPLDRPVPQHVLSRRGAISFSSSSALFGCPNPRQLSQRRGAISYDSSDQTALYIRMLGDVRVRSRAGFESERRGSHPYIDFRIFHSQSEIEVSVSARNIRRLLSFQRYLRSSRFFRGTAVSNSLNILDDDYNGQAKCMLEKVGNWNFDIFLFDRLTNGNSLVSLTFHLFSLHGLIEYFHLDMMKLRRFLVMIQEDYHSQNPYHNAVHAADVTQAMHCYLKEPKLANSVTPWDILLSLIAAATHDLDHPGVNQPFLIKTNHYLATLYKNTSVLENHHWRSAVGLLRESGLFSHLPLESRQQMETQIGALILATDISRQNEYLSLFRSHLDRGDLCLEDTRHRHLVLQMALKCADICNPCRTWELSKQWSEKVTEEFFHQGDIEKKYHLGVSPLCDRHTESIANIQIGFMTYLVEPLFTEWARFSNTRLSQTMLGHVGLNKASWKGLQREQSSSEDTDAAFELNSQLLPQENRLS

[24] = biological target: High affinity cGMP-specific 3',5'-cyclic phosphodiesterase 9A (Homo sapiens, UniProt O76083); test: Displacement of [3H]cAMP from PDE9A1 by competitive binding assay
Chain of High affinity cGMP-specific 3',5'-cyclic phosphodiesterase 9A (O76083 whole entry): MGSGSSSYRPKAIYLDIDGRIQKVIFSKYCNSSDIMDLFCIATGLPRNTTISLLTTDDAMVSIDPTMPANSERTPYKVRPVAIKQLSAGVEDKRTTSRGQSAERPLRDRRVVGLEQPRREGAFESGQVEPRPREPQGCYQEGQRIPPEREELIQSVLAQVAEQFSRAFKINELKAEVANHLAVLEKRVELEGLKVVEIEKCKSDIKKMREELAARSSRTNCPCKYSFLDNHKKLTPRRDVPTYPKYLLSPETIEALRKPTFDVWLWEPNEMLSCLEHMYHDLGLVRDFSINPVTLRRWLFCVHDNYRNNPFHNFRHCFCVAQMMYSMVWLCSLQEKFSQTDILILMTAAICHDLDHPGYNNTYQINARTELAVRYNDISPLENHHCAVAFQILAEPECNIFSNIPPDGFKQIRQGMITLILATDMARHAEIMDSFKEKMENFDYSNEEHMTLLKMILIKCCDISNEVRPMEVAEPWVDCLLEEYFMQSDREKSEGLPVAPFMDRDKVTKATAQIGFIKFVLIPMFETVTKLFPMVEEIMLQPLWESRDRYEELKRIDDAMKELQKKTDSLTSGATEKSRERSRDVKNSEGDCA

[25] = biological target: cGMP-dependent 3',5'-cyclic phosphodiesterase (Homo sapiens, UniProt O00408); test: Displacement of [3H]cAMP from PDE2A by competitive binding assay

Compound: Cc1n[nH]c2nc3ccc(C(F)(F)F)cc3c(CN3CCCOCC3)c12
Ki [1]: 0.104 µM

Compound: COc1cc(OC)c2nc3[nH]nc(C)c3c(CN3CCCOCC3)c2c1
Ki [1]: 0.014 µM

Compound: COc1cc(C)c2nc3[nH]nc(C)c3c(CN3C4CCC3CC4)c2c1
Ki [1]: 1.2 µM

Compound: Cc1cc(OC(F)(F)F)cc2c(CN3CCCOCC3)c3c(C)n[nH]c3nc12
Ki [1]: 0.019 µM

Compound: COc1cc(C)c2nc3[nH]nc(C)c3c(CN3CCOC(CO)C3)c2c1 (stereo not drawn)
Ki [2]: 5 µM
Activity [9]: inactive
Activity [10]: 104%
Ki [3]: 0.3 µM
Ki [1]: 0.0006 µM
Activity [18]: inactive

Compound: COc1cc(C)c2nc3[nH]nc(C)c3c(CN3CCOC(C)C3)c2c1 (stereo not drawn)
Ki [2]: 8.9 µM
Activity [9]: inactive
Activity [10]: 130%
Ki [3]: 8.3 µM
Ki [1]: 0.003 µM
Activity [18]: 88%

Compound: Cc1cc(Cl)cc2c(CN3CC4CC3CO4)c3c(C)n[nH]c3nc12 (stereo not drawn)
Ki [1]: 0.06 µM

Compound: COCCOc1cc(C)c2nc3[nH]nc(C)c3c(CN3CCCOCC3)c2c1
Ki [19]: > 10 µM
Ki [2]: 24.4 µM
Ki [3]: 5.9 µM
Ki [1]: 0.001 µM
Ki [20]: > 10 µM
Ki [21]: > 10 µM
Ki [22]: > 10 µM
Ki [23]: > 10 µM
Ki [24]: > 10 µM
Ki [25]: > 10 µM

Compound: COc1cc(C)c2nc3[nH]nc(C)c3c(CN3CCCCC3)c2c1
Ki [1]: 0.804 µM

Compound: Cc1cc(Cl)cc2c(CN3C4CCC3CC4)c3c(C)n[nH]c3nc12
Ki [1]: 0.229 µM

Compound: COc1cc(C)c2nc3[nH]nc(C)c3c(CN3CCC(C(F)(F)F)CC3)c2c1
Ki [1]: 0.871 µM

Compound: COc1cc(C)c2nc3[nH]nc(C)c3c(CN3CCOC(C)(C)C3)c2c1
Ki [1]: 0.171 µM

Compound: COc1cc(C)c2nc3[nH]nc(C)c3c(CN3CC[C@@H](O)C3)c2c1
Ki [2]: 6.4 µM
Activity [9]: inactive
Activity [10]: 102%
Ki [3]: 4.7 µM
Ki [1]: 0.003 µM
Activity [18]: inactive

Compound: COc1cc(C)c2nc3[nH]nc(C)c3c(CN3CCCC(C(F)(F)F)C3)c2c1 (stereo not drawn)
Ki [1]: 0.353 µM

Compound: COc1cc(C)c2nc3[nH]nc(C)c3c(CN3C[C@@H](C)O[C@@H](C)C3)c2c1
Ki [1]: 0.026 µM

Compound: Cc1cc(Cl)cc2c(CN3CCCOCC3)c3c(C)n[nH]c3nc12
Activity [9]: inactive
Activity [10]: 87%
Ki [1]: 0.041 µM
Activity [18]: inactive

Compound: COc1cc(C)c2nc3[nH]nc(C)c3c(CN3CCCC3)c2c1
Activity [9]: 96%
Activity [10]: 122%
Ki [1]: 0.024 µM
minimal effective dose [14]: 1 mg/kg
Activity [18]: 107%

Compound: COc1cc(C)c2nc3[nH]nc(C)c3c(CN3[C@@H]4CC[C@H]3C[C@@H](O)C4)c2c1
Ki [1]: 0.265 µM

Now from value to compound, other results behind:

Ki [2]: 20.8 µM
Ki [3]: 2.4 µM
Ki [1]: 0.002 µM
Compound: Cc1cc(O)cc2c(CN3CCCOCC3)c3c(C)n[nH]c3nc12

Ki [1]: 0.046 µM
Compound: COc1cc(C)c2nc3[nH]nc(C)c3c(CN3CC4CC3CO4)c2c1 (stereo not drawn)

Ki [1]: 0.037 µM
Compound: Cc1n[nH]c2nc3c(OC(F)(F)F)cc(Br)cc3c(CN3CCCOCC3)c12

hepatocyte CLint [4]: 6 µL/min/1e6 cells
BPR [5]: 1.56
fraction unbound [7]: 0.03
hepatocyte CLint [8]: 8.3 µL/min/1e6 cells
Ki [2]: 9.7 µM
Ki [3]: 2.1 µM
inhibition (INH) [12]: Not Active
concentration at 6 h [13]: 42 ng/g
hepatocyte CLint [15]: < 1 µL/min/1e6 cells
inhibition (INH) [16]: Not Active
inhibition (INH) [17]: Not Active
Compound: COc1cc(C)c2nc3[nH]nc(C)c3c(CN3CCCOCC3)c2c1
MED [6]: 30 mg/kg
Activity [9]: 66%
Activity [10]: 103%
inhibition at 10 µM [11]: 5.3%
minimal effective dose [14]: 3 mg/kg
Activity [18]: 120%

Ki [1]: 0.009 µM
Compound: COc1cc(C)c2nc3[nH]nc(C)c3c(CN3CCNC(=O)C3)c2c1
Activity [10]: inactive

Ki [1]: 0.049 µM
Compound: COc1cc(C)c2nc3[nH]nc(C)c3c(CN3CCNCC3)c2c1
Activity [10]: inactive

Ki [1]: 0.057 µM
Compound: COc1cc(C)c2nc3[nH]nc(C)c3c(CN3CCC(O)CC3)c2c1
Activity [9]: inactive
Activity [10]: 136%
Activity [18]: inactive

Ki [1]: 0.202 µM
Compound: COc1cc(C)c2nc3[nH]nc(C)c3c(CN3CCC(F)CC3)c2c1

Ki [1]: 0.03 µM
Compound: COc1cc(C)c2nc3[nH]nc(C)c3c(CN3CCN[C@H](C)C3)c2c1
Activity [10]: inactive

Ki [1]: 0.153 µM
Compound: COc1ccc2nc3[nH]nc(C)c3c(CN3CCCOCC3)c2c1

Ki [2]: 10.6 µM
Ki [3]: 2 µM
Compound: COc1cc(C)c2nc3[nH]nc(C)c3c(CN3CCOCC3)c2c1
Activity [9]: inactive
Activity [10]: 109%
Activity [18]: 131%

Ki [1]: 0.032 µM
Compound: COc1cc(C)c2nc3[nH]nc(C)c3c(CN3CCC(CO)C3)c2c1 (stereo not drawn)
Activity [9]: inactive
Activity [10]: 38%
Activity [18]: inactive

Ki [1]: 0.008 µM
Compound: Cc1cc(OC(C)C)cc2c(CN3CCCOCC3)c3c(C)n[nH]c3nc12
